Common to all, as to assay type: functional, cell-based
The test system of one assay is MDA-MB-231. The assay can be described thus: Antiproliferative activity against human MDA-MB-231 cells assessed as inhibition of cell growth measured after 48 hrs by SRB assay. Particulars: MDA-MB-231, 48 h, read-out: IC50.
A further assay relates to A549. Description: Antiproliferative activity against human A549 cells assessed as inhibition of cell growth measured after 48 hrs by SRB assay. Particulars: A549, 48 h.
The test system of another assay is HCT-116. The assay can be described thus: Antiproliferative activity against human HCT-116 cells assessed as inhibition of cell growth measured after 48 hrs by SRB assay. Particulars: HCT-116, 48 h. For orientation: Sulforhodamine B stains cellular protein and so reports cell mass.
The subject of a further assay is THP-1. The assay can be described thus: Antiproliferative activity against human THP-1 cells assessed as inhibition of cell growth measured after 48 hrs by SRB assay. The settings on record: THP-1, 48 h.
The test system of another assay is MCF7. The assay can be described thus: Antiproliferative activity against human MCF-7 cells assessed as inhibition of cell growth measured after 48 hrs by SRB assay. Particulars: MCF7, 48 h.

In the case of `COc1ccc(C(c2ccc(OCCN3CCCC3)cc2)c2cccc3ccccc23)c(OC)c1OC` (stereo not given), the IC50 – broadly, the concentration at which inhibition is half-maximal – in the assay on MDA-MB-231 came to 14.4 µM; with A549, 15.8 µM; with HCT-116, 10.8 µM; in the assay with THP-1, 5.4 µM; in the assay with MCF7, 15.3 µM.

`COc1ccc(/C(=C/c2ccc(F)cc2)c2cccc3ccccc23)c(OC)c1OC`: the IC50 with MDA-MB-231 is > 20 µM; in the assay with A549, 18.6 µM; in the assay on HCT-116 it was > 20 µM; in the assay with THP-1, 18.9 µM; in the assay on MCF7, 10.5 µM.

As for `C=CCOC(c1ccc(OC)c(OC)c1OC)c1cccc2ccccc12` (stereo not given), the IC50 in the assay on MDA-MB-231 was > 20 µM; in the assay with A549, 9.71 µM; with HCT-116, > 20 µM; in the assay with THP-1, > 20 µM; with MCF7 it was > 20 µM.

For `CCN(CC)CCOc1ccc(C(c2ccc(OC)c(OC)c2OC)c2cccc3ccccc23)cc1` (stereo not given), the IC50 in the assay with MDA-MB-231 was 15.6 µM; with A549 it was 11.5 µM; in the assay on HCT-116, 8.34 µM; in the assay on THP-1 it was 13.9 µM; in the assay on MCF7, 15.5 µM.

Consider `COc1ccc(C(c2ccc(OCC(=O)O)cc2)c2cccc3ccccc23)c(OC)c1OC` (stereo not given), for which the IC50 in the assay on MDA-MB-231 was > 20 µM; in the assay with A549, 16.4 µM; in the assay with HCT-116 it was 5.02 µM; in the assay with THP-1, > 20 µM; in the assay on MCF7, > 20 µM.

`COc1ccc(/C(=N/OC(C)=O)c2cccc3ccccc23)c(OC)c1OC`: the IC50 with MDA-MB-231 is 17 µM; in the assay on A549, 17.2 µM; with HCT-116 it was 4.98 µM; in the assay with THP-1 it was > 20 µM; with MCF7, > 20 µM.

For the compound `CCOC(=O)CO/N=C(/c1ccc(OC)c(OC)c1OC)c1cccc2ccccc12`, the IC50 in the assay with MDA-MB-231 was 16.4 µM; in the assay on A549, 6.72 µM; in the assay on HCT-116, 3.36 µM; in the assay on THP-1, > 20 µM; with MCF7, > 20 µM.

With `COc1ccc(/C(=C\c2ccc(F)cc2)c2cccc3ccccc23)c(OC)c1OC`, the IC50 with MDA-MB-231 is 16.2 µM; in the assay on A549, > 20 µM; in the assay on HCT-116 it was > 20 µM; in the assay on THP-1, 9.08 µM; in the assay with MCF7, 17.7 µM.

For `CCOC(=O)C(C)C(O)(c1ccc(OC)c(OC)c1OC)c1cccc2ccccc12` (stereo not given), the IC50 with MDA-MB-231 is > 20 µM; in the assay with A549, 4 µM; with HCT-116, > 20 µM; with THP-1 it was > 20 µM; in the assay with MCF7, > 20 µM.

For `COc1ccc(C(c2ccccc2OCCN2CCCCC2)c2cccc3ccccc23)c(OC)c1OC` (stereo not given), the IC50 in the assay on MDA-MB-231 was 7.18 µM; with A549 it was 9.86 µM; in the assay on HCT-116 it was 4.63 µM; in the assay with THP-1 it was 19.1 µM; in the assay with MCF7, 12.4 µM.

`CCOC(=O)/C=C/CO/N=C(/c1ccc(OC)c(OC)c1OC)c1cccc2ccccc12`: the IC50 with MDA-MB-231 is > 20 µM; with A549 it was 14 µM; in the assay on HCT-116 it was > 20 µM; in the assay on THP-1 it was > 20 µM; in the assay on MCF7, > 20 µM.

With `COc1ccc(C(c2ccc(OCCN(C)C)cc2)c2cccc3ccccc23)c(OC)c1OC` (stereo not given), the IC50 with MDA-MB-231 is 14.3 µM; with A549, 10.2 µM; with HCT-116, 3.3 µM; in the assay with THP-1, 7.95 µM; in the assay with MCF7 it was 15.2 µM.

In the case of `COc1cc(COC(c2ccc(OC)c(OC)c2OC)c2cccc3ccccc23)cc(OC)c1` (stereo not given), the IC50 in the assay with MDA-MB-231 is > 20 µM; with A549, 17.5 µM; in the assay with HCT-116, > 20 µM; in the assay with THP-1, > 20 µM; in the assay on MCF7 it was > 20 µM.

In the case of `COc1ccc(C(c2ccc(OC(C)CN(C)C)cc2)c2cccc3ccccc23)c(OC)c1OC` (stereo not given), the IC50 came to 4.34 µM in the assay on MDA-MB-231; 11.4 µM with A549; 8.41 µM with HCT-116; 15 µM in the assay on THP-1; 13.1 µM with MCF7.

In the case of `COc1ccc(C(OCc2ccccc2)c2cccc3ccccc23)c(OC)c1OC` (stereo not given), the IC50 in the assay on MDA-MB-231 was > 20 µM; in the assay with A549, 13.5 µM; in the assay with HCT-116 it was > 20 µM; in the assay on THP-1 it was > 20 µM; in the assay on MCF7, 14.1 µM.

Source of the values: ChEMBL document CHEMBL4680139, “Antiproliferative activity of diarylnaphthylpyrrolidine derivative via dual target inhibition” (Eur J Med Chem, 2020).
